Laboratory results reported in patent publication US9833497B2, “Human originated EGF domain proteins and use of the same” (CHENGDU SOURCEBIO LIMITED-LIABILITY COMPANY, priority 2013, dated 2017).

Assays:
Format in all cases: cell-based
E. coli BL21 = assay: MIC against Gram-negative bacteria: E. coli BL21; settings: 5×10^5 CFU/mL
Method in brief: (§1)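 Bacteria grown in LB at 37° C to McFarland 0.5, resuspended and seeded at 5×10^5 CFU/mL in 96-well plates. Purified human EGF-domain proteins two-fold serially diluted, triplicate wells; cultured at 37° C, shaking 175 rpm. MIC = lowest protein concentration with no growth.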

Pseudomonas aeruginosa = assay: MIC against Gram-negative bacteria: Pseudomonas aeruginosa; settings: 5×10^5 CFU/mL
Method in brief: as §1

Aeromonas hydrophila = assay: MIC against Gram-negative bacteria: Aeromonas hydrophila; settings: 5×10^5 CFU/mL
Method in brief: as §1

Proteus mirabilis = assay: MIC against Gram-negative bacteria: Proteus mirabilis; settings: 5×10^5 CFU/mL
Method in brief: as §1

Enterobacter cloacae = assay: MIC against Gram-negative bacteria: Enterobacter cloacae; settings: 5×10^5 CFU/mL
Method in brief: as §1

Moraxella catarrhalis = assay: MIC against Gram-negative bacteria: Moraxella catarrhalis; settings: 5×10^5 CFU/mL
Method in brief: as §1

E. coli DH5α = assay: Antibacterial activity: MIC and growth curve against E. coli DH5α in 96-well plate; settings: minimal inhibitory concentration against E. coli DH5α; 96-well plate, 5×10^5 CFU/mL, 37° C., judged after 8 h
Method in brief: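 MIC taken as lowest protein level with no bacterial growth, tracked by A600 every 30 min during 37 °C, 175 rpm culture. Two-fold protein series 50-12.5 μg/mL final, triplicate wells, against 5×10^5 CFU/mL of LB-washed mid-log cells.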

Klebsiella pneumonia = assay: MIC against Gram-negative bacteria: Klebsiella pneumonia; settings: 5×10^5 CFU/mL
Method in brief: as §1

Citrobacter diversus = assay: MIC against Gram-negative bacteria: Citrobacter diversus; settings: 5×10^5 CFU/mL
Method in brief: as §1

Serratia marcescens = assay: MIC against Gram-negative bacteria: Serratia marcescens; settings: 5×10^5 CFU/mL
Method in brief: as §1

Proteus vulgaris = assay: MIC against Gram-negative bacteria: Proteus vulgaris; settings: 5×10^5 CFU/mL
Method in brief: as §1

[1] = E. coli BL21, 10 h cultivation at 37° C.
[2] = Pseudomonas aeruginosa, 10 h cultivation at 37° C.
[3] = Aeromonas hydrophila, 10 h cultivation at 37° C.
[4] = Proteus mirabilis, 10 h cultivation at 37° C.
[5] = Enterobacter cloacae, 10 h cultivation at 37° C.
[6] = Moraxella catarrhalis, 10 h cultivation at 37° C.
[7] = Klebsiella pneumonia, 10 h cultivation at 37° C.
[8] = Citrobacter diversus, 10 h cultivation at 37° C.
[9] = Serratia marcescens, 10 h cultivation at 37° C.
[10] = Proteus vulgaris, 10 h cultivation at 37° C.

## PRT463 (DVNECLQLPKACAYQCHNLQGSYRCLCPPGQTLLRDGKACT; listed as Homo sapiens)
E. coli BL21; 96-well plate, 37° C., 10 h
  MIC against E. coli BL21: 12.5 µg/mL
Pseudomonas aeruginosa; 96-well plate, 37° C., 10 h
  MIC against P. aeruginosa: 50 µg/mL
Aeromonas hydrophila; 96-well plate, 37° C., 10 h
  MIC against A. hydrophila: 12.5 µg/mL
Proteus mirabilis; 96-well plate, 37° C., 10 h
  MIC against P. mirabilis: 12.5 µg/mL
Enterobacter cloacae; 96-well plate, 37° C., 10 h
  MIC against E. cloacae: 50 µg/mL
Moraxella catarrhalis; 96-well plate, 37° C., 10 h
  MIC against M. catarrhalis: 12.5 µg/mL
E. coli DH5α
  MIC: 50 µg/mL
Klebsiella pneumonia; 96-well plate, 37° C., 10 h
  MIC against K. pneumonia: 12.5 µg/mL
Citrobacter diversus; 96-well plate, 37° C., 10 h
  MIC against C. diversus: 50 µg/mL
Serratia marcescens; 96-well plate, 37° C., 10 h
  MIC against S. marcescens: 50 µg/mL
Proteus vulgaris; 96-well plate, 37° C., 10 h
  MIC against P. vulgaris: 12.5 µg/mL

## PRT618 (CDCDPAGIAGPCDAGRCVCKPAVTGERCDRCRSGYYNLDGGNPEGCTQ; listed as Homo sapiens)
E. coli BL21; 96-well plate, 37° C., 10 h
  MIC E. coli BL21: 25 µg/mL
Pseudomonas aeruginosa; 96-well plate, 37° C., 10 h
  MIC P. aeruginosa: 12.5 µg/mL
Aeromonas hydrophila; 96-well plate, 37° C., 10 h
  MIC A. hydrophila: 50 µg/mL
Proteus mirabilis; 96-well plate, 37° C., 10 h
  MIC P. mirabilis: 12.5 µg/mL
Enterobacter cloacae; 96-well plate, 37° C., 10 h
  MIC E. cloacae: 12.5 µg/mL
Moraxella catarrhalis; 96-well plate, 37° C., 10 h
  MIC M. catarrhalis: 50 µg/mL
E. coli DH5α
  MIC: 50 µg/mL
Klebsiella pneumonia; 96-well plate, 37° C., 10 h
  MIC K. pneumonia: 50 µg/mL
Citrobacter diversus; 96-well plate, 37° C., 10 h
  MIC C. diversus: 12.5 µg/mL
Serratia marcescens; 96-well plate, 37° C., 10 h
  MIC S. marcescens: 25 µg/mL
Proteus vulgaris; 96-well plate, 37° C., 10 h
  MIC P. vulgaris: 50 µg/mL

## PRT1412 (RASCPVLCSGNGQYMKGRCLCHSGWKGAECD; listed as Homo sapiens)
E. coli BL21; [1]
  MIC against E. coli BL21: 50 µg/mL
Pseudomonas aeruginosa; [2]
  MIC against P. aeruginosa: 25 µg/mL
Aeromonas hydrophila; [3]
  MIC against A. hydrophila: 50 µg/mL
Proteus mirabilis; [4]
  MIC against P. mirabilis: 25 µg/mL
Enterobacter cloacae; [5]
  MIC against E. cloacae: 25 µg/mL
Moraxella catarrhalis; [6]
  MIC against M. catarrhalis: 12.5 µg/mL
E. coli DH5α
  MIC: 25 µg/mL
Klebsiella pneumonia; [7]
  MIC against K. pneumonia: 12.5 µg/mL
Citrobacter diversus; [8]
  MIC against C. diversus: 25 µg/mL
Serratia marcescens; [9]
  MIC against S. marcescens: 25 µg/mL
Proteus vulgaris; [10]
  MIC against P. vulgaris: 50 µg/mL

## PRT1408 (NEICSVDCGSHGVCMGGTCRCEEGWTGPACNQ; listed as Homo sapiens)
E. coli BL21; [1]
  MIC against E. coli BL21: 12.5 µg/mL
Pseudomonas aeruginosa; [2]
  MIC against P. aeruginosa: 25 µg/mL
Aeromonas hydrophila; [3]
  MIC against A. hydrophila: 12.5 µg/mL
Proteus mirabilis; [4]
  MIC against P. mirabilis: 12.5 µg/mL
Enterobacter cloacae; [5]
  MIC against E. cloacae: 25 µg/mL
Moraxella catarrhalis; [6]
  MIC against M. catarrhalis: 12.5 µg/mL
E. coli DH5α
  MIC: 25 µg/mL
Klebsiella pneumonia; [7]
  MIC against K. pneumonia: 12.5 µg/mL
Citrobacter diversus; [8]
  MIC against C. diversus: 12.5 µg/mL
Serratia marcescens; [9]
  MIC against S. marcescens: 25 µg/mL
Proteus vulgaris; [10]
  MIC against P. vulgaris: 12.5 µg/mL

## PRT241 (DTDECQIAGVCQQMCVNYVGGFECYCSEGHELEADGISCS; listed as Homo sapiens)
E. coli BL21; [1]
  MIC (μg/mL) E. coli BL21: 12.5 µg/mL
Pseudomonas aeruginosa; P. aeruginosa, 10 h cultivation at 37° C.
  MIC (μg/mL) P. aeruginosa: 12.5 µg/mL
Aeromonas hydrophila; A. hydrophila, 10 h cultivation at 37° C.
  MIC (μg/mL) A. hydrophila: 12.5 µg/mL
Proteus mirabilis; P. mirabilis, 10 h cultivation at 37° C.
  MIC (μg/mL) P. mirabilis: 12.5 µg/mL
Enterobacter cloacae; E. cloacae, 10 h cultivation at 37° C.
  MIC (μg/mL) E. cloacae: 12.5 µg/mL
Moraxella catarrhalis; M. catarrhalis, 10 h cultivation at 37° C.
  MIC (μg/mL) M. catarrhalis: 25 µg/mL
E. coli DH5α
  MIC: 12.5 µg/mL
Klebsiella pneumonia; K. pneumonia, 10 h cultivation at 37° C.
  MIC (μg/mL) K. pneumonia: 12.5 µg/mL
Citrobacter diversus; C. diversus, 10 h cultivation at 37° C.
  MIC (μg/mL) C. diversus: 12.5 µg/mL
Serratia marcescens; S. marcescens, 10 h cultivation at 37° C.
  MIC (μg/mL) S. marcescens: 50 µg/mL
Proteus vulgaris; P. vulgaris, 10 h cultivation at 37° C.
  MIC (μg/mL) P. vulgaris: 25 µg/mL

## PRT1330 (VVDFCKQDNGGCAKVARCSQKGTKVSCSCQKGYKGDGHSCT; listed as Homo sapiens)
E. coli BL21; E. coli BL21, 96-well plate, 37° C., 10 h
  MIC against E. coli BL21: 12.5 µg/mL
Pseudomonas aeruginosa; Pseudomonas aeruginosa, 96-well plate, 37° C., 10 h
  MIC against P. aeruginosa: 12.5 µg/mL
Aeromonas hydrophila; Aeromonas hydrophila, 96-well plate, 37° C., 10 h
  MIC against A. hydrophila: 12.5 µg/mL
Proteus mirabilis; Proteus mirabilis, 96-well plate, 37° C., 10 h
  MIC against P. mirabilis: 12.5 µg/mL
Enterobacter cloacae; Enterobacter cloacae, 96-well plate, 37° C., 10 h
  MIC against E. cloacae: 50 µg/mL
Moraxella catarrhalis; Moraxella catarrhalis, 96-well plate, 37° C., 10 h
  MIC against M. catarrhalis: 25 µg/mL
E. coli DH5α
  MIC: 12.5 µg/mL
Klebsiella pneumonia; Klebsiella pneumonia, 96-well plate, 37° C., 10 h
  MIC against K. pneumonia: 12.5 µg/mL
Citrobacter diversus; Citrobacter diversus, 96-well plate, 37° C., 10 h
  MIC against C. diversus: 50 µg/mL
Serratia marcescens; Serratia marcescens, 96-well plate, 37° C., 10 h
  MIC against S. marcescens: 50 µg/mL
Proteus vulgaris; Proteus vulgaris, 96-well plate, 37° C., 10 h
  MIC against P. vulgaris: 25 µg/mL
